The values that follow come from patent US20160221948A1, “NITROGEN-CONTAINING SATURATED HETEROCYCLIC COMPOUND” (SUMITOMO CHEMICAL COMPANY, LIMITED, priority 2013, published 2016).

One experiment deals with human SSTR4 (Homo sapiens, UniProt P31391). Briefly: Evaluation of agonist activities using human SSTR4-stably expressing cells (aequorin luminescence). It counts as cell-based. The arrangement: expressed in transfected cells; host or cells: HEK293. The method, boiled down: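 HEK293 cells stably expressing SSTR4, transiently given Gα16 and apoaequorin, were loaded with 0.5 μmol/L coelenterazine H for 4 h at room temperature. After compound addition in Hanks/20 mM Hepes/0.1% BSA, luminescence was read for 90 s. Activity is relative to 1 μmol/L somatostatin as 100%.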

The target in a further experiment is T1, SSTR5 (Homo sapiens, UniProt P35346).
T1 construct: expressed in transfected cells
Briefly: Binding affinity using cell membrane from cells expressing SSTR subtypes.

Another experiment deals with Tg 2576 mice. Briefly: Cognitive function improving action (mORT) using Tg 2576 mice. It counts as in vivo, mouse. The following applies: 30 mg/kg/day mixed in feed for 4 months. As for the experimental part: Evaluation of Cognitive Function Improving Action and Aβ Reducing Action Using Tg 2576 Mice
Four-month-old Tg 2576 mice received compounds involved with the present invention mixed in feed for 4 months. After completion of administration, the mORT test was performed to evaluate cognitive function, then the amount of brain Aβ was measured by ELISA. […] Discrimination index as indexes for evaluating cognitive function were as follows (vehicle, 0.064±0.049, 30 mg/kg/day; 0.330±0.062).

For orientation: EC50 means the concentration at which the effect is half-maximal. One may read the Ki as the equilibrium dissociation constant of an inhibitor or competing ligand from its target. The low end stands for a stronger hold on the target, the high end for a looser hold on the target.

Sequence of human SSTR4 (P31391 whole entry): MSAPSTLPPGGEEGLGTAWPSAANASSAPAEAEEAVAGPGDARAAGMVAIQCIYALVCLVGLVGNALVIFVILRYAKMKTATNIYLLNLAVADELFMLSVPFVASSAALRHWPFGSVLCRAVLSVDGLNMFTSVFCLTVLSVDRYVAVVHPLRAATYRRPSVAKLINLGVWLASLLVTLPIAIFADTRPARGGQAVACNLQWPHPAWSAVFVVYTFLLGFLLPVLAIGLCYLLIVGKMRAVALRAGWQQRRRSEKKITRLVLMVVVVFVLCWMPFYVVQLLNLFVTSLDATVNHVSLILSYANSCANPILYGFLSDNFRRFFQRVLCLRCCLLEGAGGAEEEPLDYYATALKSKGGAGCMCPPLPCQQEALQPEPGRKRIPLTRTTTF
T1 sequence (P35346 whole entry, species assumed): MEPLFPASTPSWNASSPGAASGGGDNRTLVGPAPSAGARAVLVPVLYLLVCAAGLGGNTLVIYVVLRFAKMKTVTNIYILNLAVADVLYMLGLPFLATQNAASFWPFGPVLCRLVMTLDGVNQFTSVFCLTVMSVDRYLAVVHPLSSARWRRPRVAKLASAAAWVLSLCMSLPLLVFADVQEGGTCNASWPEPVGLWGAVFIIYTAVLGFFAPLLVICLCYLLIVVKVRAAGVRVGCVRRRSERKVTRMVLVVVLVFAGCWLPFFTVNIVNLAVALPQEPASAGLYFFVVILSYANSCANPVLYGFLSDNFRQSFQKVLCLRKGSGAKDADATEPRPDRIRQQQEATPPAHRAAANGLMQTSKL

In the case of `CN1CCC[C@H](C(=O)NC(C)(C)c2cc(Cl)ccc2Cl)C1` [Example 21, (3S)—N-[2-(2,5-dichlorophenyl)propane-2-yl]-1-methylpiperidine-3-carboxamide], the “SSTR4 agonist activity compared with other compounds” value at human SSTR4 (Tables 25 to 27) is recorded as “stronger SSTR4 agonist activity”. A half-maximal effect on human SSTR4 (luminescence signal, 1 μmol/L somatostatin taken as 100%) (EC50) was put at 2 nM. Moreover, the Ki at SSTR5 was above 5000 nM. In the experiment with Tg 2576 mice, the “cognitive function improving action” value is “significant cognitive function improving action” and the discrimination index is on record as 0.330±0.062.
